Source: the CheMixHub drug solubility set

Assay: xn = mol fraction of the nth substance listed, in the solute-free solvent

Nc1ccc(Oc2ccc(N)cc2)cc1 + CN(C)C=O + CCO
solubility (g/100 g solution)
Conditions | 293.15 K | 298.15 K | 303.15 K | 308.15 K | 313.15 K | 318.15 K | 323.15 K | 328.15 K | 333.15 K
x2 = 0.06545 | 0.79 | 0.873 | 1.16 | 1.2 | 1.53 | 1.69 | 2.06 | 2.54 | 2.99
x2 = 0.1361 | 1.59 | 1.71 | 2.14 | 2.18 | 2.57 | 2.99 | 3.53 | 4.13 | 4.74
x2 = 0.2127 | 2.76 | 2.98 | 3.46 | 3.65 | 4.23 | 4.88 | 5.56 | 6.41 | 7.1
x2 = 0.2959 | 4.51 | 4.86 | 5.41 | 5.88 | 6.29 | 7.33 | 8.28 | 9.19 | 10.3
x2 = 0.3866 | 6.9 | 7.38 | 7.95 | 8.83 | 9.66 | 10.6 | 11.6 | 12.8 | 14.1
x2 = 0.486 | 9.91 | 10.6 | 11.3 | 12.2 | 13.3 | 14.3 | 15.5 | 16.9 | 18.1
x2 = 0.5952 | 13.6 | 14.3 | 15.1 | 16.1 | 17.2 | 18.5 | 19.6 | 21 | 22.4
x2 = 0.716 | 17.6 | 18.4 | 19.2 | 20.3 | 21.5 | 22.6 | 23.9 | 25.2 | 26.7
x2 = 0.8501 | 21.8 | 22.5 | 23.2 | 24 | 25.6 | 26.7 | 27.9 | 29.2 | 30.6

Nc1nccnc1Cl + CO + O
solubility (g/100 g solution)
Conditions | 278.15 K | 283.15 K | 288.15 K | 293.15 K | 298.15 K | 303.15 K | 308.15 K | 313.15 K | 318.15 K | 323.15 K
x2 = 0.05881 | 0.0549 | 0.0728 | 0.0951 | 0.118 | 0.143 | 0.169 | 0.195 | 0.225 | 0.254 | 0.284
x2 = 0.1233 | 0.118 | 0.155 | 0.201 | 0.248 | 0.298 | 0.348 | 0.402 | 0.461 | 0.517 | 0.578
x2 = 0.1942 | 0.209 | 0.274 | 0.352 | 0.433 | 0.519 | 0.604 | 0.695 | 0.795 | 0.89 | 0.996
x2 = 0.2727 | 0.322 | 0.42 | 0.538 | 0.661 | 0.79 | 0.918 | 1.06 | 1.21 | 1.35 | 1.51
x2 = 0.3599 | 0.423 | 0.542 | 0.697 | 0.868 | 1.06 | 1.24 | 1.44 | 1.66 | 1.86 | 2.1
x2 = 0.4576 | 0.533 | 0.708 | 0.918 | 1.15 | 1.37 | 1.6 | 1.86 | 2.13 | 2.4 | 2.73
x2 = 0.5675 | 0.656 | 0.886 | 1.15 | 1.42 | 1.7 | 1.98 | 2.31 | 2.65 | 3.02 | 3.44
x2 = 0.6923 | 0.804 | 1.06 | 1.35 | 1.67 | 1.97 | 2.3 | 2.71 | 3.13 | 3.58 | 4.07
x2 = 0.835 | 0.917 | 1.2 | 1.55 | 1.95 | 2.37 | 2.78 | 3.25 | 3.75 | 4.25 | 4.86

CC(C)=CCCC(C)C1CCC2(C)C3=C(CCC12C)C1(C)CCC(O)C(C)(C)C1CC3 (stereo unspecified) + CC(C)O + O
solubility (g/100 g solution)
Conditions | 278.15 K | 288.15 K | 298.15 K | 308.15 K | 318.15 K
x2 = 0.01234 | 2.03e-05 | 2.81e-05 | 3.2e-05 | 3.94e-05 | 5.13e-05
x2 = 0.09088 | 0.000156 | 0.000176 | 0.000221 | 0.00024 | 0.000254
x2 = 0.2604 | 0.0158 | 0.0209 | 0.0306 | 0.0368 | 0.0456
x2 = 0.6874 | 0.147 | 0.272 | 0.373 | 0.472 | 0.64

c1ccc2[nH]c(-c3cscn3)nc2c1 + CC(C)O + O
solubility (g/100 g solution)
Conditions | 283.15 K | 288.15 K | 293.15 K | 298.15 K | 303.15 K | 308.15 K | 313.15 K | 318.15 K | 323.15 K
x2 = 0.03225 | 0.00182 | 0.0023 | 0.00284 | 0.00356 | 0.0044 | 0.00539 | 0.00665 | 0.00808 | 0.00978
x2 = 0.06974 | 0.00792 | 0.00964 | 0.0123 | 0.015 | 0.0183 | 0.022 | 0.0263 | 0.0311 | 0.0368
x2 = 0.1139 | 0.0206 | 0.0251 | 0.0303 | 0.0374 | 0.0453 | 0.0539 | 0.064 | 0.0751 | 0.0876
x2 = 0.1666 | 0.0372 | 0.0456 | 0.0555 | 0.0669 | 0.0796 | 0.0936 | 0.113 | 0.131 | 0.156
x2 = 0.2307 | 0.0599 | 0.0732 | 0.0858 | 0.101 | 0.121 | 0.143 | 0.169 | 0.197 | 0.23
x2 = 0.3103 | 0.0907 | 0.109 | 0.127 | 0.148 | 0.178 | 0.204 | 0.234 | 0.27 | 0.312
x2 = 0.4117 | 0.131 | 0.154 | 0.181 | 0.213 | 0.249 | 0.287 | 0.329 | 0.379 | 0.433
x2 = 0.5454 | 0.16 | 0.192 | 0.225 | 0.262 | 0.301 | 0.347 | 0.399 | 0.459 | 0.529
x2 = 0.7297 | 0.197 | 0.23 | 0.268 | 0.309 | 0.36 | 0.413 | 0.47 | 0.534 | 0.6

CC(C)=CCCC(C)C1CCC2(C)C3=C(CCC12C)C1(C)CCC(O)C(C)(C)C1CC3 (stereo unspecified) + CO + O
solubility (g/100 g solution)
Conditions | 296.67 K | 306.81 K | 316.94 K | 328.97 K | 338.78 K
x2 = 0.0229 | 8.14e-06 | 1.37e-05 | 3.09e-05 | 6.98e-05 | 0.000153
x2 = 0.09675 | 8.15e-06 | 1.39e-05 | 3.32e-05 | 8.15e-05 | 0.000161
x2 = 0.3065 | 7.26e-06 | 1.51e-05 | 3.94e-05 | 8.99e-05 | 0.000193
x2 = 0.5109 | 0.00011 | 0.000197 | 0.000378 | 0.000796 | 0.00195
x2 = 0.8048 | 0.0189 | 0.0422 | 0.0785 | 0.161 | –

Nc1nccnc1Cl + CC(C)O + O
solubility (g/100 g solution)
Conditions | 278.15 K | 283.15 K | 288.15 K | 293.15 K | 298.15 K | 303.15 K | 308.15 K | 313.15 K | 318.15 K | 323.15 K
x2 = 0.03225 | 0.0425 | 0.0564 | 0.0738 | 0.092 | 0.112 | 0.133 | 0.154 | 0.178 | 0.201 | 0.227
x2 = 0.06974 | 0.0786 | 0.103 | 0.134 | 0.166 | 0.201 | 0.237 | 0.275 | 0.316 | 0.356 | 0.402
x2 = 0.1139 | 0.129 | 0.168 | 0.215 | 0.266 | 0.321 | 0.38 | 0.439 | 0.503 | 0.567 | 0.64
x2 = 0.1666 | 0.19 | 0.245 | 0.313 | 0.387 | 0.466 | 0.551 | 0.638 | 0.729 | 0.824 | 0.93
x2 = 0.2307 | 0.242 | 0.315 | 0.4 | 0.503 | 0.609 | 0.724 | 0.84 | 0.962 | 1.09 | 1.24
x2 = 0.3103 | 0.31 | 0.394 | 0.503 | 0.621 | 0.753 | 0.893 | 1.05 | 1.2 | 1.38 | 1.57
x2 = 0.4117 | 0.355 | 0.459 | 0.585 | 0.73 | 0.887 | 1.06 | 1.23 | 1.42 | 1.61 | 1.85
x2 = 0.5454 | 0.393 | 0.507 | 0.645 | 0.808 | 0.982 | 1.18 | 1.38 | 1.58 | 1.83 | 2.1
x2 = 0.7297 | 0.411 | 0.529 | 0.672 | 0.836 | 1.02 | 1.23 | 1.45 | 1.67 | 1.93 | 2.26
